Results reported in patent US20220315572A1, “SUBSTITUTED CYANOPYRROLIDINES WITH ACTIVITY AS USP30 INHIBITORS” (MISSION THERAPEUTICS LIMITED, priority 2019, published 2022).
pEC50: −log10 of the molar value. Blank lines part the entries; values can stand above or below the molecule they belong to.

Assays:
[1] = Mouse plasma stability; type: in vitro ADME; settings: read-out: Stability Mouse plasma t1/2
Description: Other parameters that may be measured using standard assays that are indicative of a compound's exposure profile include, for example plasma stability (half-life measurement), blood AUC, Cmax, Cmin and Tmax values.

[2] = system: HCT116 human colorectal carcinoma cells; experiment: In vitro cytotoxicity (Cell Tox), alamarBlue; type: cell-based; settings: for pEC50: Homo sapiens, HCT-116, 96-hour continual compound exposure, alamarBlue
Description: There is also a need for compounds that have a favourable safety profile, which may be measured by a variety of standard in vitro and in vivo methods. A cell toxicity counter-screen may be used to assay the anti-proliferative/cytotoxic effect in a particular cell line (e.g. HCT116) by fluorometric detection of rezasurin (alamarBlue) to resofurin in response to mitochondrial activity.
In Vitro Cytotoxicity (Cell Tox): Measured in HCT116 human colorectal carcinoma cells using alamarBlue as the assay endpoint. Compound cytotoxicity was measured over a period of 96-hour continual compound exposure.

[3] = Hepatocyte Cl human; type: in vitro ADME; settings: human hepatocytes
Protocol: Hep Cl human: in vitro hepatocyte clearance in human cells.
Clu: in vitro clearance. Clu as defined here is the scaled clearance, in turn calculated from the intrinsic clearance. The intrinsic clearance is the predicted clearance due to hepatic metabolic reactions, determined from incubation of a compound in a hepatocyte preparation.

[4] = system: USP2, USP10, USP16, USP21, USP22, USP25, USP28, USP35, USP46; experiment: DUB biochemical IC50 assays, nine DUBs; settings: range over the nine DUBs; for IC50: Ref. Ex. C excl. USP22, Ref. Ex. D excl. USP2, 46
[5] = Log D; type: physicochemical; settings: pH 7.4; read-out: Log D measured at pH 7.4
Description: log D: distribution co-efficient; lipophilicity measurement.

[6] = system: Eurofins CEREP SafetyScreen44 panel; experiment: Eurofins CEREP SafetyScreen44 panel; type: binding; settings: single concentration of 10 μM, all targets in the panel
Description: Aside from selectivity over other DUB enzymes, it is important for a drug to have low affinity for other targets, and pharmacological profiling may be performed against panels of targets to assess the potential for, and to minimise, potential off-target effects. Examples of targets for which the compounds of the present invention may be screened against are those of the industry standard Eurofins-Cerep SafetyScreen44 panel, which includes 44 targets as a representative selection of GPCR receptors, transporters, ion channels, nuclear receptors, and kinase and non-kinase enzymes. Preferably, compounds of the invention have insignificant affinity against targets of this screening panel. Further examples of targets for which the compounds of the present invention may be screened against are kinases of the Thermo Fisher SelectScreen kinase profiling panel, which includes 39 targets as a representative selection of kinase enzymes. Preferably, compounds of the invention have insignificant affinity against targets of this screening panel. Additionally, examples of a particular enzyme class for which the compounds of the present invention may be screened against are the cathepsins (e.g. cathepsin A, B, C, H, K, L, S, V and Z). Preferably, compounds of the invention have good selectivity for USP30 over one or more of these enzymes. […]

[7] = system: P-glycoprotein (MDR1), human; experiment: MDR1-MDCK flux assay; type: in vitro ADME, Canine; settings: dog
Description: The treatment of CNS disorders, including Alzheimer's disease, Parkinson's disease, and other disorders described herein, requires drug molecules to target the brain, which requires adequate penetration of the blood brain barrier. […] The probability that a compound can cross the blood brain barrier may be measured by an in vitro flux assay utilizing a MDR1-MDCK cell monolayer (Madin-Darby Canine Kidney cells transfected with MDR-1 resulting in overexpression of the human efflux transporter P-glycoprotein). Additionally, exposure may also be measured directly in brain and plasma using in vivo animal models.
MDR1-MDCK (Madin-Darby Canine Kidney cell monolayer) (in vitro) flux assay.

[8] = molecular target: T1, UCHL1 (Homo sapiens, UniProt P09936); experiment: DUB biochemical IC50 assay, UCHL1
T1 sequence (P09936 1-223): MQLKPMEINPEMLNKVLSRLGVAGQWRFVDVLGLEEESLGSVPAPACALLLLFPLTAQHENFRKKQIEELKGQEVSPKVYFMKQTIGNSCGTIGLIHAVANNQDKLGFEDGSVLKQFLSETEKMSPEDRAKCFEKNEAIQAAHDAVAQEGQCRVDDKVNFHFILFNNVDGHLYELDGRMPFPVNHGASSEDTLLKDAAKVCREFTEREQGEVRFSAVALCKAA

[9] = system: Cathepsins B, K, L, S, V; experiment: Cathepsin IC50, range over B, K, L, S, V; type: biochemical; settings: for Selectivity preference for USP30 v cathepsins: range over cathepsins B, K, L, S; for IC50: range over the five cathepsins

Compound: C[C@@H]1C[C@@H](NC(=O)c2nnc(-c3cccc(C#N)c3)o2)CN1C#N [Example 1, N-((3R,5R)-1-Cyano-5-methylpyrrolidin-3-yl)-5-(3-cyanophenyl)-1,3,4-oxadiazole-2-carboxamide]
half-life [1]: > 33.3 h | Cell Tox EC50/USP30 IC50 [2]: >1000 | pEC50 [2]: < 4.52 | Hepatocyte Cl human scaled Clu [3]: 6 mL/min/kg | DUB selectivity preference for USP30 v 9 DUBs [4]: 200-6900 | IC50 [4]: 5.8 to 202 µM | logD [5]: 1.3 | inhibition of binding or enzyme activity [6]: less than 25% | efflux ratio [7]: 81 | Papp A→B ([7]; A-B): 0.9 ×10⁻⁶ cm/s | DUB selectivity preference for USP30 v UCHL1 [8]: 10300 | IC50 [8]: > 300 µM | Selectivity preference for USP30 v cathepsins [9]: 900-10300 | IC50 [9]: 26.2 to 300 µM

IC50 [4]: ≥ 4.4 µM | DUB selectivity preference for USP30 v UCHL1 [8]: 15400 | IC50 [8]: 200 µM | IC50 [9]: 9.9 to 256 µM
Compound: N#Cc1cccc(-c2nnc(C(=O)N[C@@H]3C[C@@H](CF)N(C#N)C3)o2)c1 [Example 3, N-((3R,5S)-1-Cyano-5-(fluoromethyl)pyrrolidin-3-yl)-5-(3-cyanophenyl)-1,3,4-oxadiazole-2-carboxamide]
Cell Tox EC50/USP30 IC50 [2]: >2300 | pEC50 [2]: < 4.52 | DUB selectivity preference for USP30 v 9 DUBs [4]: 338-23000 | Selectivity preference for USP30 v cathepsins [9]: 760-19700
